Here are results for three compounds from publication PMC3319978 (Biochemical Pharmacology, 2011).

Test [1] concerns the target PDC-3 β-lactamase (Pseudomonas aeruginosa, UniProt P24735, T105A). The test can be described thus: Inhibition of nitrocefin hydrolysis. It is filed as biochemical.
Test [2] has as its system β-lactamases. To be noted: serve as excellent substrates of the β-lactamases; ref 27 (Fisher et al.); cited from earlier work.
Test [3] deals with ATCC35218 E. coli blaTEM-1. The experiment in a line: Disc diffusion susceptibility testing. To be noted: 10 μg of ampicillin and each inhibitor, MH agar, 37 °C, 18 h.

Regarding `O=C(O)[C@H]1/C(=C/CO)O[C@@H]2CC(=O)N21` [Clavulanic acid, clavulanic acid], the IC50 in test [1] was over 100 µM.

Consider `CC1(C)[C@H](C(=O)O)N2C(=O)[C@@H](NC(=O)Cc3ccccc3)[C@H]2S1(=O)=O` [compound 19, penicillin G sulfone], for which the β-Lactamase inhibition result in test [2] was “poor β-lactamase inhibitors”.

Compound `CC1(C)S[C@@H]2[C@H](NC(=O)[C@H](N)c3ccccc3)C(=O)N2[C@H]1C(=O)O` [Ampicillin, ampicillin] gave a Zone diameter in test [3] of 6 mm.

As usually defined, the IC50 is the point on the concentration scale where inhibition reaches its midpoint.
